According to article PMC7026480, “Discovery of Multitarget-Directed Ligands Against Influenza A Virus From Compound Yizhihao Through a Predictive System for Compound-Protein Interactions” (Frontiers in Cellular and Infection Microbiology, 2020):
Where two headings read alike, the source gives them in different places.

Legend:
[1] = biological target: neuraminidase (NA) of A/FujianXinluo/SWL2457/2014 (amantadine-resistant H1N1); type: biochemical, influenza A virus; details: read-out: IC50, NA inhibition test, A/FujianXinluo/SWL2457/2014
[2] = biological target: neuraminidase (NA) of A/HebeiXinhua/SWL1106/2017 (oseltamivir- and amantadine-resistant H1N1); type: biochemical, influenza A virus; details: read-out: IC50, NA inhibition test, A/HebeiXinhua/SWL1106/2017
[3] = system: A/FujianXinluo/SWL2457/2014 (amantadine-resistant H1N1); assay: microbe, parasite or virus in culture; type: cell-based; details: Influenza A virus, H1N1, MDCK
[4] = system: wild-type and resistant IAV strains; assay: microbe, parasite or virus in culture; type: cell-based, influenza A virus; details: for IC50: Influenza A virus, read-out: IC50, protective effects for cells infected with the resistant IAV strains (CPE)
[5] = system: A/HebeiXinhua/SWL1106/2017 (oseltamivir- and amantadine-resistant H1N1); assay: microbe, parasite or virus in culture; type: cell-based, influenza A virus
[6] = read-out: IC50, CPE reduction, A/FujianXinluo/SWL2457/2014, Drug administration after virus inoculation
[7] = read-out: IC50, CPE reduction, A/FujianXinluo/SWL2457/2014, Pre-incubation of virus and drug
[8] = read-out: IC50, CPE reduction, A/FujianXinluo/SWL2457/2014, Simultaneous action of virus and drug
[9] = read-out: IC50, CPE reduction, A/FujianXinluo/SWL2457/2014, Virus inoculation after drug administration
[10] = Influenza A virus, H1N1, MDCK, read-out: IC50, CPE reduction, A/HebeiXinhua/SWL1106/2017, Drug administration after virus inoculation
[11] = Influenza A virus, H1N1, MDCK, read-out: IC50, CPE reduction, A/HebeiXinhua/SWL1106/2017, Pre-incubation of virus and drug
[12] = Influenza A virus, H1N1, MDCK, read-out: IC50, CPE reduction, A/HebeiXinhua/SWL1106/2017, Simultaneous action of virus and drug
[13] = Influenza A virus, H1N1, MDCK, read-out: IC50, CPE reduction, A/HebeiXinhua/SWL1106/2017, Virus inoculation after drug administration
[14] = read-out: IC50, dual-oseltamivir and amantadine-resistant H1N1 CPE assay, all modes except for drug administration after viral infection

| Compound | IC50 [1] | IC50 [2] | IC50 [3, 6] | IC50 [3, 7] | IC50 [3, 8] | IC50 [3, 9] | IC50 [4] | IC50 [5, 10] | IC50 [5, 11] | IC50 [5, 12] | IC50 [5, 13] | IC50 [5, 14] | inhibition of virus-induced CPE [4] | IC50, dual-oseltamivir and amantadine-resistant H1N1 CPE assay, in the modes tested [5] | IC50 ([5]; Influenza A virus, H1N1, MDCK, read-out: IC50, dual-oseltamivir and amantadine-resistant H1N1 CPE assay, in the modes tested) |
| --- | --- | --- | --- | --- | --- | --- | --- | --- | --- | --- | --- | --- | --- | --- | --- |
| C=C(C(=O)O)[C@H]1CC[C@H](C)[C@@H]2CC(=O)C(C)=C2C1 (stereo in doubt) [Rupestonic acid] | > 100 µM | > 100 µM |  |  |  |  |  |  |  |  |  |  |  |  |  |
| O=c1cc(-c2ccc(O)cc2)oc2cc(O)cc(O)c12 [Apigenin] |  |  | 28.1 ± 2.37 µM | 32.1 ± 4.13 µM | 40.5 ± 4 µM | 36.5 ± 5.79 µM | < 100 µM | > 100 µM | 31.6 ± 10.3 µM | 35.4 ± 3.98 µM | 39 ± 3.82 µM | < 100 µM |  |  |  |
| O=C(/C=C/c1ccc(O)c(O)c1)O[C@@H]1C[C@](O)(C(=O)O)C[C@@H](O)[C@H]1O [Chlorogenic acid] | > 100 µM | > 100 µM |  |  |  |  |  |  |  |  |  |  | no inhibition of virus-induced CPE |  |  |
| C=C[C@@H]1CNC(=S)O1 [Epigoitrin] | > 100 µM | > 100 µM |  |  |  |  |  |  |  |  |  |  |  |  |  |
| O=c1cc(-c2ccc(O)c(O)c2)oc2cc(O)cc(O)c12 [Luteolin] |  |  | 31.9 ± 1.99 µM | 1.14 ± 1.02 µM | 24.9 ± 9.62 µM | > 100 µM | < 100 µM | > 100 µM | 15.2 ± 4.46 µM | 20.1 ± 10.6 µM | 47.2 ± 7.14 µM | < 100 µM |  |  |  |
| O=c1cc(-c2ccc(O)c(O)c2)oc2c([C@@H]3O[C@H](CO)[C@@H](O)[C@H](O)[C@H]3O)c(O)cc(O)c12 [Orientin] | > 100 µM | > 100 µM |  |  |  |  |  |  |  |  |  |  | no inhibition of virus-induced CPE |  |  |
| CCOC(=O)C1=C[C@@H](OC(CC)CC)[C@H](NC(C)=O)[C@@H](N)C1 [Oseltamivir, oseltamivir phosphate, reference compound] |  |  | 86.9 ± 7.8 µM | 25.4 ± 8.32 µM | 25.5 ± 8.36 µM | > 100 µM |  | > 100 µM | > 100 µM | > 100 µM | > 100 µM |  |  | no effect |  |
| O=c1c(O)c(-c2ccc(O)c(O)c2)oc2cc(O)cc(O)c12 [Quercetin] |  |  | 20.7 ± 14.7 µM | 7.73 ± 3.04 µM | 37.1 ± 18.2 µM | 86.1 ± 13.8 µM | < 100 µM | > 100 µM | 6.93 ± 4.6 µM | 14.6 ± 1.8 µM | 19.1 ± 1.95 µM | < 100 µM |  |  |  |
| NC(=O)c1ncn([C@@H]2O[C@H](CO)[C@@H](O)[C@H]2O)n1 [Ribavirin, ribavirin, reference compound] |  |  | 25.9 ± 14.6 µM | 24.6 ± 3.1 µM | 26.2 ± 2.4 µM | 86.7 ± 9.8 µM |  | 57.9 ± 10.5 µM | 29.8 ± 6.4 µM | 36.2 ± 13.7 µM | 39.9 ± 9.71 µM |  |  |  | 29.8 to 57.9 µM |
